The values that follow come from US12338203B2 (TAISHO PHARMACEUTICAL CO., LTD., priority 2019, dated 2025).

T1 sequence (Q92633 whole entry): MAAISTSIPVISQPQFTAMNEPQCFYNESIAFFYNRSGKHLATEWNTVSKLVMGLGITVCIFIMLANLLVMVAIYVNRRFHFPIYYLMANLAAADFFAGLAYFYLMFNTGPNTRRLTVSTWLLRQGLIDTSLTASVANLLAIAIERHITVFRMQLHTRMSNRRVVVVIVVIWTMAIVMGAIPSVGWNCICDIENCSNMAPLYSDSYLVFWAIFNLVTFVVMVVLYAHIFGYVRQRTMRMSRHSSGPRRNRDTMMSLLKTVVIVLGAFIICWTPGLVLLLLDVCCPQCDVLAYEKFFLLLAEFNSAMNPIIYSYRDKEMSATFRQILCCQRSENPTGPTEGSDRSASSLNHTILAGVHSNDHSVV

The test concerns the target T1, human LPAR1 (Homo sapiens, UniProt Q92633).
T1 construct: expressed in transfected cells
As to the kind of experiment: Test Example 1: antagonism against response of LPA-induced increase in intracellular Ca2+ concentration in RH7777 cells stably expressing human LPAR1. The class given is cell-based. To be noted: RH7777 cells stably expressing human LPAR1; Fluo-4 fluorescence, FDSS6000; read-out: IC50 value (concentration producing 50% antagonism against response of LPA-induced increase in intracellular Ca2+ concentration) (converted). As to the method:
(1) Preparation of RH7777 cells stably expressing human LPAR1
The human LPAR1 expression vector was transfected into RH7777 cells to acquire human LPAR1 expressing cells.
(2) Test of antagonism against response of LPA-induced increase in intracellular Ca^2+ concentration
Cells stably expressing human LPAR1 were used for a test of antagonism against response of LPA-induced increase in intracellular Ca^2+ concentration.
The cells were seeded onto the Poly-D-Lysine 96 well black plate and incubated overnight. […] 50 μL of the Basal Buffer (1×HBSS, 20 mM HEPES, 2.5 mM Probenecid, 0.05% BSA, 0.25 mg/mL Amaranth, pH 7.4) containing the test compound was added thereto, followed by incubation at 37° C. for 30 minutes. In FDSS6000 (Hamamatsu Photonics K.K.), LPAs were added, and the change in intracellular Ca^2+ concentration was detected using the fluorescence value of a wavelength of 540 nm by an excitation wavelength of 480 nm as an indicator. […] The Rmax under […] without the test compound was used as the control value. The Rmax under Basal Buffer stimulation with no LPAs or test compounds was used as the basal value.
The percentage (%) of increase in intracellular Ca^2+ concentration was calculated by dividing the value obtained by subtracting the basal value from Rmax in the presence of LPAs and each concentration of the test compound by the value obtained by subtracting the basal value from the control value. The concentration of each test compound was plotted on the X axis and the percentage (%) of increase in intracellular Ca^2+ concentration was plotted on the Y axis, and the IC50 value was calculated by nonlinear regression using XLfit.
For `COc1cc([C@@H](C)N(CCCCc2ccccc2)C(=O)NC2(C(=O)O)CC(F)(F)C2)cc(OC)c1C` [Example 1-67], the IC50 was 1.6 nM. For `CCOc1cc(C(C)N(CCCCc2ccccc2)C(=O)NC2(C(=O)O)CC(F)(F)C2)cc(OC)c1C` (stereo not drawn) [Example 1-68], the IC50 is 3.78 nM. The value for `CCCOc1cc(C(C)N(CCCCc2ccccc2)C(=O)NC2(C(=O)O)CC(F)(F)C2)cc(OCC)c1C` (stereo not drawn) [Example 1-69] was 5.04 nM; that for `CCOc1cc(C(C)N(CCCCc2ccccc2)C(=O)NC2(C(=O)O)CC(F)(F)C2)cc(F)c1C(C)=O` (stereo not drawn) [Example 1-71] was 3.48 nM.

`CCOc1cc(C(C)N(CCCCc2ccccc2)C(=O)NC2(C(=O)O)CC(F)(F)C2)cc(F)c1C(C)O` (stereo not drawn) [Example 1-72]: the IC50 is 4.22 nM.

For `Cc1c(OC2CC2)cc(C(C)N(CCCCc2ccccc2)C(=O)NC2(C(=O)O)CC(F)(F)C2)cc1OC1CC1` (stereo not drawn) [Example 1-73], the IC50 is 7.43 nM. As for `CCOc1cc(C(C)N(CCCCc2ccccc2)C(=O)NC2(C(=O)O)CC(F)(F)C2)cc(COC)c1C` (stereo not drawn) [Example 1-74], the IC50 is 7.15 nM.

As for `CCOc1c(C(C)=O)ccc([C@@H](C)N(CCCCc2ccccc2)C(=O)NC2(C(=O)O)CC(F)(F)C2)c1C` [Example 1-75], the IC50 was 1.24 nM. As to `CCOc1c(C(C)O)ccc([C@@H](C)N(CCCCc2ccccc2)C(=O)NC2(C(=O)O)CC(F)(F)C2)c1C` (stereo partly drawn) [Example 1-77, 1-{[{(1R)-1-[3-Ethoxy-4-(1-Hydroxyethyl)-2-Methylphenyl]Ethyl}(4-Phenylbutyl) Carbamoyl]Amino}-3,3-Difluorocyclobutane-1-Carboxylic Acid], the IC50 was 3.12 nM. For the molecule `CC(c1cc(Cl)cc(Cl)c1F)N(CCCCc1ccccc1)C(=O)NC1(C(=O)O)CC(F)(F)C1` (stereo not drawn) [Example 1-80], the IC50 is 13.1 nM.

With `CCOc1cc(C(C)N(CCCCc2ccccc2)C(=O)NC2(C(=O)O)CC(F)(F)C2)c(C)cc1C(C)=O` (stereo not drawn) [Example 1-81], the IC50 is 0.944 nM. With `CCOc1cc(C(C)N(CCCCc2ccccc2)C(=O)NC2(C(=O)O)CC(C)(C)C2)cc(OCC)c1C(C)=O` (stereo not drawn) [Example 1-84], the IC50 was 3.12 nM. Regarding `CCOc1cc([C@@H](C)N(CCCCc2ccccc2)C(=O)NC2(C(=O)O)CC(OC)C2)cc(OCC)c1C(C)=O` (stereo partly drawn) [Example 1-85, 1-({[(1R)-1-(4-Acetyl-3,5-Diethoxyphenyl)Ethyl](4-Phenylbutyl) Carbamoyl}Amino)-3-Methoxycyclobutane-1-Carboxylic Acid], the IC50 was 2.53 nM.

On to `CCOc1cc([C@@H](C)N(CCCCc2ccccc2)C(=O)N[C@]2(C(=O)O)C[C@@H](OC)C2)cc(OCC)c1C(C)=O` [Example 1-86, Trans-1-({[(1R)-1-(4-Acetyl-3,5-Diethoxyphenyl)Ethyl](4-Phenylbutyl) Carbamoyl}Amino)-3-Methoxycyclobutane-1-Carboxylic Acid], for which the IC50 was 2.33 nM. Turning to `CCOc1cc([C@@H](C)N(CCCCc2ccccc2)C(=O)N[C@]2(C(=O)O)C[C@H](OC)C2)cc(OCC)c1C(C)=O` [Example 1-87, Cis-1-({[(1R)-1-(4-Acetyl-3,5-Diethoxyphenyl)Ethyl](4-Phenylbutyl) Carbamoyl}Amino)-3-Methoxycyclobutane-1-Carboxylic Acid], the IC50 is 1.37 nM. For the molecule `CCOc1cc([C@@H](C)N(CCCCc2ccccc2)C(=O)NC2(C(=O)O)CC(OC)C2)cc(OCC)c1C1(O)CC1` (stereo partly drawn) [Example 1-90], the IC50 was 9.18 nM. As to `CCOc1cc([C@@H](C)N(CCCCc2ccccc2)C(=O)NC2(C(=O)O)CC(OC)C2)cc(OCC)c1C` (stereo partly drawn) [Example 1-91], the IC50 was 1.99 nM. The value for `CCOc1c(C(C)=O)ccc([C@@H](C)N(CCCCc2ccccc2)C(=O)NC2(C(=O)O)CC(OC)C2)c1C` (stereo partly drawn) [Example 1-93] was 4 nM; that for `CCOc1c(C(C)=O)ccc([C@@H](C)N(CCCCc2ccccc2)C(=O)NC2(C(=O)O)CC(OC)C2)c1C` (stereo partly drawn) [Example 1-94] was 11.8 nM; that for `CCOc1cc([C@@H](C)N(CCCCc2ccccc2)C(=O)NC2(C(=O)O)CC(OCC)C2)cc(OCC)c1C(C)=O` (stereo partly drawn) [Example 1-95] was 3.09 nM.

As to `CCOc1cc(C(C)N(CCCCc2ccccc2)C(=O)NC2(C(=O)O)CC(OCC)C2)cc(OCC)c1C(C)=O` (stereo not drawn) [Example 1-96], the IC50 was 2.11 nM.

Turning to `CCOc1cc([C@@H](C)N(CCCCc2ccccc2)C(=O)NC2(C(=O)O)CC(OCC)C2)cc(OCC)c1C(C)=O` (stereo partly drawn) [Example 1-97], the IC50 was 3.94 nM.

Regarding `CCOc1cc([C@@H](C)N(CCCCc2ccccc2)C(=O)NC2(C(=O)O)CC(OCC)C2)cc(OCC)c1C(C)O` (stereo partly drawn) [Example 1-98], the IC50 is 4.33 nM.

For `CCOc1cc([C@@H](C)N(CCCCc2ccccc2)C(=O)NC2(C(=O)O)CC(OCC)C2)cc(OCC)c1C(C)O` (stereo partly drawn) [Example 1-99], the IC50 is 2.58 nM. Regarding `CCOc1cc([C@@H](C)N(CCCCc2ccccc2)C(=O)NC2(C(=O)O)CC(OCC)C2)cc(OCC)c1C` (stereo partly drawn) [Example 1-100], the IC50 was 3.13 nM. The value for `CCOc1cc(C(C)N(CCCCc2ccccc2)C(=O)NC2(C(=O)O)CC(OCC)C2)cc(OCC)c1C1CC1` (stereo not drawn) [Example 1-101] was 1.44 nM; that for `CCOc1c(C(C)=O)ccc([C@@H](C)N(CCCCc2ccccc2)C(=O)NC2(C(=O)O)CC(OCC)C2)c1C` (stereo partly drawn) [Example 1-102] was 2.03 nM; that for `CCOc1c(C(C)=O)ccc([C@@H](C)N(CCCCc2ccccc2)C(=O)NC2(C(=O)O)CC(OCC)C2)c1C` (stereo partly drawn) [Example 1-103] was 4.57 nM.

Consider `CCOc1c(C(C)(C)O)ccc([C@@H](C)N(CCCCc2ccccc2)C(=O)NC2(C(=O)O)CC(OCC)C2)c1C` (stereo partly drawn) [Example 1-104], for which the IC50 is 10.3 nM. `CCOc1cc([C@@H](C)N(CCCCc2ccccc2)C(=O)NC2(C(=O)O)CC(O)C2)cc(OCC)c1C` (stereo partly drawn) [Example 1-106]: the IC50 is 8.72 nM. `CCOc1cc([C@@H](C)N(CCCCc2ccccc2)C(=O)NC2(C(=O)O)CC(N3CCCC3)C2)cc(OCC)c1C` (stereo partly drawn) [Example 1-108]: the IC50 was 512 nM. Take `CCOc1cc([C@@H](C)N(CCCCc2ccccc2)C(=O)NC2(C(=O)O)CC(N3CCN(C)CC3)C2)cc(OCC)c1C` (stereo partly drawn) [Example 1-109]: the IC50 is 312 nM. The value for `CCOc1cc([C@@H](C)N(CCCCc2ccccc2)C(=O)NC2(C(=O)O)CC(N3CCOCC3)C2)cc(OCC)c1C` (stereo partly drawn) [Example 1-110] was 20.2 nM; that for `CCOc1cc([C@@H](C)N(CCCCc2ccccc2)C(=O)NC2(C(=O)O)CC(=O)C2)cc(OCC)c1C` [Example 1-111] was 2.31 nM; that for `CCOc1cc(C(C)N(CCCCc2ccccc2)C(=O)NC2(C(=O)O)CCCC2)cc(OCC)c1C` (stereo not drawn) [Example 1-112] was 18.7 nM. Regarding `CCOc1cc([C@@H](C)N(CCCCc2ccccc2)C(=O)NC2(C(=O)O)CCCC2)cc(OCC)c1C` [Example 1-113], the IC50 is 4.09 nM. The value for `CCOc1cc(C(C)N(CCCCc2ccccc2)C(=O)NC2(C(=O)O)CCCC2)cc(OC(C)C)c1C` (stereo not drawn) [Example 1-114] was 128 nM; that for `COc1cc(C(C)N(CCCCc2ccccc2)C(=O)NC2(C(=O)O)CCCC2)cc(OC)c1C` (stereo not drawn) [Example 1-116] was 57.4 nM; that for `COc1cc([C@@H](C)N(CCCCc2ccccc2)C(=O)NC2(C(=O)O)CCCC2)cc(OC)c1C` [Example 1-117] was 16.8 nM. The value for `CCOc1cc([C@@H](C)N(CCCCc2ccccc2)C(=O)NC2(C(=O)O)CCCCC2)cc(OCC)c1C` [Example 1-118] was 42.8 nM; that for `CCOc1cc([C@@H](C)N(CCCCc2ccccc2)C(=O)NC2(C(=O)O)CCCCCC2)cc(OCC)c1C` [Example 1-119] was 53.6 nM. For `CCOc1cc(C(C)N(CCCCc2ccccc2)C(=O)NC2(C(=O)O)CCC(C(=O)O)CC2)cc(OCC)c1C` (stereo not drawn) [Example 1-120], the IC50 was 1670 nM. With `CCOc1cc([C@@H](C)N(CCCCc2ccccc2)C(=O)NC2(C(=O)O)CC3(CCC3)C2)cc(OCC)c1C` [Example 1-121], the IC50 was 9.23 nM. Take `CCOc1cc(C(C)N(CCCCc2ccccc2)C(=O)NC2(C(=O)O)Cc3ccccc3C2)cc(OCC)c1C` (stereo not drawn) [Example 1-122]: the IC50 was 12.7 nM. With `CCOc1cc([C@@H](C)N(CCCCc2ccccc2)C(=O)NC2(C(=O)O)Cc3ccccc3C2)cc(OCC)c1C` [Example 1-123, 2-({[(1R)-1-(3,5-Diethoxy-4-Methylphenyl)Ethyl](4-Phenylbutyl) Carbamoyl}Amino)-2,3-Dihydro-1H-Indene-2-Carboxylic Acid], the IC50 was 12.7 nM.

In the case of `CCOc1cc([C@H](C)N(CCCCc2ccccc2)C(=O)NC2(C(=O)O)Cc3ccccc3C2)cc(OCC)c1C` [Example 1-124, 2-({[(1S)-1-(3,5-Diethoxy-4-Methylphenyl)Ethyl](4-Phenylbutyl) Carbamoyl}Amino)-2,3-Dihydro-1H-Indene-2-Carboxylic Acid], the IC50 is 237 nM. Turning to `CCOc1cc(C(C)N(CCCCc2ccccc2)C(=O)NC2CCC2C(=O)O)cc(OCC)c1C(C)=O` (stereo not drawn) [Example 1-125], the IC50 is 3.09 nM. As for `CCOc1cc([C@@H](C)N(CCCCc2ccccc2)C(=O)NC2CCC2C(=O)O)cc(OCC)c1C(C)=O` (stereo partly drawn) [Example 1-126], the IC50 is 3.13 nM.
